# Publication PMC12516379, “Rotamer-Controlled Self-Immolative Linkers Enable Tunable Release of Neurosteroid Oxime Prodrugs” (ACS Medicinal Chemistry Letters, 2025)
# Like-named read-outs stand apart in the source and are kept apart here.
# Test: PBS stability assay at 37 °C via LC-MS/MS
# Type: physicochemical
# Settings: 37 °C; for half-life at 3 µM: pH 7.03, PBS
compound,measurement,setting,value
CNCCN(C)C(=O)O/N=C(\C)[C@H]1CC[C@H]2[C@@H]3CCC4=CC(=O)CC[C@]4(C)[C@H]3CC[C@]12C [20a],"PBS, 37 °C %rem. at 2h (Table S23)","PBS, 2 h",77%
same,half-life at 3 µM,"phosphate-buffered saline (DPBS), 3 µM, LC-MS/MS, read-out: t1/2 in PBS at 37 °C (Tables S14-S17) (converted)",8.07 h
same,half-life at 3 µM,"phosphate-buffered saline (DPBS), LC-MS/MS, read-out: Half-life (t½) PBS 37°C (converted)",8.07 h
same,half-life at 3 µM,"phosphate-buffered saline (DPBS), read-out: PBS, 37 °C t½ (Table S23) (converted)",8.07 h
same,half-life at 3 µM,"phosphate-buffered saline (DPBS), read-out: t1/2 (h) PBS, 37 °C (Tables S25, S26) (converted)",8.07 h
same,"remaining at 2 h, 3 µM","phosphate-buffered saline (DPBS), pH 7.03, PBS, 2 h, read-out: % Remaining @ 2h, PBS, 37 °C (Tables S25, S26)",77%
